Test results published in patent US20240286998A1, “F[…], ANALOGUES THEREOF, AND METHODS USING SAME” (Saint Joseph's University, priority 2021, published 2024).

Molecular target: Serotonin 5-HT2A (human) (Homo sapiens (Human), UniProt P28223)
Test: 5-HT2A receptor binding, [3H]-ketanserin competition in membrane fractions
Details: 1 nM [3H]-ketanserin, Cheng-Prusoff, N=1-3

Row | SMILES | 5-HT2A pKi ± SEM
1 | CCCN1CCC[C@@H]1Cc1c[nH]c2ccc(F)cc12 [compound 184, (R)-5-fluoro-3-((1-propylpyrrolidin-2-yl)methyl)-1H-indole] | 6.60
2 | C=CCN(CCC)CCc1c[nH]c2ccc(F)cc12 [compound 35, N-(2-(5-fluoro-1H-indol-3-yl)ethyl)-N-propylprop-2-en-1-amine] | 6.38 ± 0.29
3 | CN1CCC[C@@H]1Cc1c[nH]c2cc(F)c(F)cc12 [compound 185, (R)-5,6-difluoro-3-((1-methylpyrrolidin-2-yl)methyl)-1H-indole] | 6.90
4 | CN(CCc1c[nH]c2ccc(F)cc12)C1CC1 [compound 160, N-(2-(5-fluoro-1H-indol-3-yl)ethyl)-N-methylcyclopropanamine] | 7.41 ± 0.33
5 | CCC(C)N(CCc1c[nH]c2ccc(F)cc12)C1CCC1 (stereo not shown) [compound 158, N-(sec-butyl)-N-(2-(5-fluoro-1H-indol-3-yl)ethyl)cyclobutanamine] | 6.08 ± 0.15
6 | C=CCN(CCc1c[nH]c2ccc(F)cc12)C1CCC1 [Example 14, N-allyl-N-(2-(5-fluoro-1H-indol-3-yl)ethyl)cyclobutanamine] | 6.09
7 | CCN(C)CCc1c[nH]c2c(Cl)cc(F)cc12 [compound 182, 2-(7-chloro-5-fluoro-1H-indol-3-yl)-N-ethyl-N-methylethan-1-amine] | 6.62
8 | CCN(C)CCc1c[nH]c2c(C)cc(F)cc12 [compound 169, N-ethyl-2-(5-fluoro-7-methyl-1H-indol-3-yl)-N-methylethan-1-amine] | 6.05
9 | C#CCN(CCc1c[nH]c2ccc(F)cc12)C(C)C [compound 34, N-(2-(5-fluoro-1H-indol-3-yl)ethyl)-N-isopropylprop-2-yn-1-amine] | 5.78
10 | CCC(C)N(CC#N)CCc1c[nH]c2ccc(F)cc12 (stereo not shown) [compound 177, 2-(sec-butyl(2-(5-fluoro-1H-indol-3-yl)ethyl)amino)acetonitrile] | 5.71
11 | CCCN(CC)CCc1c[nH]c2ccc(F)c(F)c12 [compound 21, N-(2-(4,5-difluoro-1H-indol-3-yl)ethyl)-N-ethylpropan-1-amine] | 6.15
12 | CCCN(CCc1c[nH]c2ccc(F)cc12)C1CC1 [compound 161, N-[2-(5-fluoro-1H-indol-3-yl)ethyl]-N-propylcyclopropanamine] | 6.50
13 | CCCN(CCc1c[nH]c2c(F)cccc12)C1CCC1 [compound 162, N-(2-(7-fluoro-1H-indol-3-yl)ethyl)-N-propylcyclobutanamine] | 5.91
14 | CC(C)N(CC#N)CCc1c[nH]c2ccc(F)cc12 [compound 17, 2-((2-(5-fluoro-1H-indol-3-yl)ethyl)(isopropyl)amino)acetonitrile] | 5.41
15 | CCN(C)CCc1c[nH]c2c(F)cccc12 [Example 7, N-ethyl-2-(7-fluoro-1H-indol-3-yl)-N-methylethan-1-amine] | 6.02
16 | CN1CCC[C@@H]1Cc1c[nH]c2c(F)cccc12 [compound 186, (R)-7-fluoro-3-((1-methylpyrrolidin-2-yl)methyl)-1H-indole] | 6.47
17 | CC(C)CN(C)CCc1c[nH]c2ccc(F)cc12 [compound 39, N-(2-(5-fluoro-1H-indol-3-yl)ethyl)-N,2-dimethylpropan-1-amine] | 6.12
18 | CCCN(CC)CCc1c[nH]c2c(F)cc(F)cc12 [compound 72, N-[2-(5,7-difluoro-1H-indol-3-yl)ethyl]-N-ethylpropan-1-amine] | 6.30 ± 0.06
19 | CCCN(CCc1c[nH]c2c(F)cccc12)C(C)CC (stereo not shown) [compound 163, N-[2-(7-fluoro-1H-indol-3-yl)ethyl]-N-propylbutan-2-amine] | 5.65 ± 0.004
